The values below come from paper PMC6934184, “Selective DNA-PKcs inhibition extends the therapeutic index of localized radiotherapy and chemotherapy” (The Journal of Clinical Investigation, 2019).

Each structure is given as a SMILES string.

For this experiment, the system named is A549 subcutaneous xenografts. The experiment can be described thus: subcutaneous A549 xenograft with localized radiation. Format: in vivo, mouse. The settings on record: NU5455 30 mg/kg oral 30 min before 10 Gy. On the procedure:
Subcutaneous non–small cell lung cancer xenografts were generated in CD-1 nude or BALB/c nude mice using A549 and Calu-6 cells, respectively, as previously described ([53]). When tumors reached 100 mm^3, mice were randomized into 4 groups (n = 7–9 per group) to receive (a) vehicle (orally) 30 minutes before mock radiation, (b) NU5455 (30 mg/kg orally) 30 minutes before mock radiation, (c) targeted tumor radiation at a single dose of 3.3 or 10 Gy, or (d) NU5455 (30 mg/kg orally) 30 minutes before 3.3 Gy or 10 Gy targeted tumor radiation. For targeted irradiation of subcutaneous tumors, anesthetized mice were restrained in a lead-shielded container with only the tumor exposed, and x-ray radiation applied using an RS320 irradiation system (Gulmay Medical) at a dose rate of 1.82 Gy/min. […]
NSCLC subcutaneous xenografts were generated as previously described ( 53). […] Mouse weights and tumor volumes (1/2 x length x width x depth) were measured three times a week.
Targeted radiotherapy in subcutaneous and orthotopic NSCLC xenograft models When subcutaneous xenografts reached 100 mm3, mice were randomized into four groups (n = 7 - 11/group): (i) N-Methyl-2-pyrrolidone (NMP): 30% Encapsin : PEG400 (1:6:3 v/v/v) vehicle p.o. 30 minutes prior to mock radiation. […] The remaining mice were monitored for tumor growth until the sizes of tumo rs reached 400 mm 3 or up to 38 days after initiation of […]

With `CN(C(=O)CN1CCOCC1)c1ccc2sc3c(-c4cccc5c(=O)cc(N6CC7CCC(C6)O7)oc45)cccc3c2c1` [NU5455], the “antitumor activity with radiation” value is given as “enhanced the antitumor activity”.
